Experimental data reported in PubChem BioAssay AID686931 (Broad Institute, 2013).
Values joined by “and” are separate entries in the source; they are usually repeats but may differ in a detail not shown here. Identical values can stand only once. Active and inactive are the calls of the source. How the calls were made is not given here.

system: not listed separately; test: Confirmatory dose response, V. cholerae DH231 delta cqsS, luciferase light activation (AID 686931); settings: V. cholerae DH231 (delta cqsS) luciferase light production; at 35 µM (top of the series)

SMILES	activation
O=C(CC1CCCCC1)Nc1nnc(-c2ccc3c(c2)CCCC3)o1	0.843% (inactive)

same assay, conditions: V. cholerae DH231 (delta cqsS) luciferase light production; at 50 µM (top of the series)

SMILES	activation
CCCCCCCCCC(=O)C(O)CC (configuration not stated)	-0.408% (inactive)

same assay, conditions: V. cholerae DH231 (delta cqsS) luciferase light production; at 80 µM (top of the series)

SMILES	activation
O=C(CC1CCCCC1)Nc1nnc(-c2cccnc2)o1	-0.959% (inactive)
O=C(Nc1nnc(-c2ccc(Cl)cc2)o1)C1CCCCC1	-1.2% (inactive)
O=C(Nc1nnc(-c2ccc3c(c2)OCCO3)o1)C1CCCC1	8.16% (inactive)
Cc1ccc2cc3c(NC(=O)c4ccoc4)nn(C)c3nc2c1	10.6% (inactive)
O=C(Nc1nnc(-c2cccc(Cl)c2)o1)C1CCCCC1	1.82% (inactive)
CCC(C)(C)C(=O)Nc1nnc(-c2ccc3c(c2)OCCO3)o1	0.359% (inactive)
O=C(Nc1nnc(-c2ccc3c(c2)CCCC3)o1)C1CCC1	-0.346% (inactive)

same assay, conditions: V. cholerae DH231 (delta cqsS) luciferase light production; at 100 µM (top of the series)

SMILES	activation
O=C(Nc1nnc(-c2ccncc2)o1)C1CCC1	0.692% (inactive)
Cn1nc(NC(=O)c2ccco2)c2cc3ccc(C(C)(C)C)cc3nc21	-1.04% (inactive)
CC(C)c1ccc2cc3c(NC(=O)c4ccco4)nn(C)c3nc2c1	2.47% (inactive)
O=S(=O)(Nc1nnc(-c2ccc3c(c2)OCCO3)o1)c1ccc(Cl)cc1	-1.11% (inactive)
COc1ccc(S(=O)(=O)Nc2nnc(-c3ccc4c(c3)OCCO4)o2)cc1	-1.4% (inactive)
O=C(Nc1nnc(-c2cccnc2)o1)C1CCC1	0.588% (inactive)
c1ccc(CNc2nnc(-c3ccc4c(c3)OCCO4)o2)cc1	-0.54% (inactive)
Cn1ccc(NC(=O)c2ccco2)n1	0.502% (inactive)
O=C(Cc1ccc(-c2ccccc2)cc1)NC1CCC1	-0.546% (inactive)
Cc1ccc2cc3c(NC(=O)c4cc5ccccc5o4)nn(C)c3nc2c1	0.496% (inactive)
O=C(Nc1nnc(-c2ccccc2Cl)o1)C1CCCCC1	0.072% (inactive)
O=C(Nc1nnc(-c2ccc3c(c2)OCCO3)o1)C(F)(F)c1ccccc1	-1.19% (inactive)
COc1ccc(-c2nnc(NC(C)=O)o2)cc1	1.64% (inactive)
CN1CCC(C(=O)Nc2nnc(-c3ccc4c(c3)OCCO4)o2)CC1	0.079% (inactive)
Cc1ccc2cc3c(NC(=O)Cc4ccco4)nn(C)c3nc2c1	13.6% (inactive)
O=C(Nc1nnc(-c2ccc3c(c2)OCCO3)o1)C1CC1	-0.326% (inactive)
CCCCCCCCCC(=O)[C@H](O)CC (racemic)	-0.642% (inactive)
O=C(Nc1nnc(C2CCCC2)o1)C1CCCCC1	-0.731% (inactive)
O=C(Nc1nnc(-c2ccc3c(c2)OCCO3)o1)C1CCC1	0.218% (inactive)
CC(C)(C)OC(=O)N1CCC(C(=O)Nc2nnc(-c3ccc4c(c3)OCCO4)o2)CC1	0.619% (inactive)
CN(C)/C=N/c1nnc(-c2ccc3c(c2)OCCO3)o1	-0.521% (inactive)
Cc1ccc2cc3c(NC(=O)c4ccccn4)nn(C)c3nc2c1	1.04% (inactive)
C(=N\c1nnc(-c2ccc3c(c2)OCCO3)o1)/c1ccccc1	0.573% (inactive)
CCn1nnnc1NCc1ccc(C(C)C)cc1	-0.577% (inactive)
COc1cccc(-c2nnc(NC(=O)C3CCCCC3)o2)c1	3.05% (inactive)
Cc1ccc2cc3c(NC(=O)c4ccc(C)o4)nn(C)c3nc2c1	0.174% (inactive)

system: V. cholerae DH231 (delta cqsS) luciferase light production; test: as above; settings: not given

SMILES	AC40
Cn1nc(NC(=O)c2ccco2)c2ccccc21	78.1 µM
Cc1ccc2cc3c(NC(=O)c4ccco4)nn(C)c3nc2c1	6.52 µM and 15.8 µM
Cc1cc(F)c2cc3c(NC(=O)c4ccco4)nn(C)c3nc2c1	76.2 µM
Cc1ccc2cc3c(NC(=O)c4cccs4)nn(C)c3nc2c1	75.3 µM
Cc1cc(F)cc2nc3c(cc12)c(NC(=O)c1ccco1)nn3C	70.7 µM
Cc1cc2cc3c(NC(=O)c4ccco4)nn(C)c3nc2cc1C	22.2 µM
COc1ccc2cc3c(NC(=O)c4ccco4)nn(C)c3nc2c1	1.83 µM
Cc1ccc2cc3c(NC(=O)C4CCCC4)nn(C)c3nc2c1	37.9 µM
COc1ccc(-c2nnc(NC(=O)C3CCCCC3)o2)cc1	> 100 µM (inactive)
O=C(Nc1nnc(-c2ccc3c(c2)OCCO3)o1)C1CCCCC1	4.54 µM and 1.67 µM
CCc1ccc2cc3c(NC(=O)c4ccco4)nn(C)c3nc2c1	31 µM
O=C(Nc1nnc(-c2cccnc2)o1)C1CCCCC1	88.1 µM
Cc1cc2nc3c(cc2cc1F)c(NC(=O)c1ccco1)nn3C	21.7 µM
COc1ccccc1-c1nnc(NC(=O)C2CCCCC2)o1	> 100 µM (inactive)
Cn1nc(NC(=O)c2ccco2)c2cccnc21	20.4 µM
Cn1nc(NC(=O)c2ccco2)c2cc3ccccc3nc21	4.18 µM
O=C(Nc1nnc(-c2ccc3c(c2)OCCO3)o1)C1CCCCCC1	10.5 µM
